The text below walks through data of patent US20220089575A1, “FARNESOID X RECEPTOR AGONISTS AND USES THEREOF” (Metacrine, Inc., priority 2017, published 2022).

This assay has as its target T1, hFXR (Homo sapiens, UniProt Q96RI1).
T1 construct: expressed in transfected cells; host or cells: CV-1 cells
T1 sequence (Q96RI1 1-486): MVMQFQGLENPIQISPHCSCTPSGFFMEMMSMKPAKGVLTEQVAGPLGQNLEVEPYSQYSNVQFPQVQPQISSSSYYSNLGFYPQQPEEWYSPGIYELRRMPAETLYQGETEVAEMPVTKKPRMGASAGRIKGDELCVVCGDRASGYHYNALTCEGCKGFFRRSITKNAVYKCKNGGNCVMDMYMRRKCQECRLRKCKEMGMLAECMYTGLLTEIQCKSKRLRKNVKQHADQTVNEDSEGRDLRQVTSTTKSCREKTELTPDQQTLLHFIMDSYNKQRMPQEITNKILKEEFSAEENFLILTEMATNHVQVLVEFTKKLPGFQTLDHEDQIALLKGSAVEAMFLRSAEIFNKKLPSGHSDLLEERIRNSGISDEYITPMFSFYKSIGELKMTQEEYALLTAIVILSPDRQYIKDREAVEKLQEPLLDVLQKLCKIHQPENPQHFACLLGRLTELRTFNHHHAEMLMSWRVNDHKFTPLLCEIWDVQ
T1 sequence (P19793 1-462 partner): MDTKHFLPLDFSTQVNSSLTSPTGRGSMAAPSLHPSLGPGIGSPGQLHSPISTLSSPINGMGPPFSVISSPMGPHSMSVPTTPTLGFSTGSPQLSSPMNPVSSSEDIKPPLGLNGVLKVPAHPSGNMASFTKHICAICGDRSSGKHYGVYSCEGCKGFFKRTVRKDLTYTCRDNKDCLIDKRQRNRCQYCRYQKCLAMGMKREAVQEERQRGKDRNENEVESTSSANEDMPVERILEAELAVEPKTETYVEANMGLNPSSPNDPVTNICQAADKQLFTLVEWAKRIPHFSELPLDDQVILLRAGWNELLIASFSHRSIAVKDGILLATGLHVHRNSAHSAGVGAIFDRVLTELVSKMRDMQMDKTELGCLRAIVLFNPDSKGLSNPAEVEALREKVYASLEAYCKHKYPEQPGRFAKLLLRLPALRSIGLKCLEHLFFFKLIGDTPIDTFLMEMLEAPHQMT
Description: In Vitro FXR Assay (TK): TK-ECRE-luc reporter in transfected CV-1 cells. Particulars: 18 hrs, luminescence, maximum efficacy of <25% of the Fexarmine control classified as '+'. The format is cell-based. An outline of the steps: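 CV-1 cells in DMEM with 10% charcoal-stripped FBS were co-transfected with hFXR, hRXR, TK-ECRE-luc reporter and pCMX-YFP plasmids. After 18 h, compounds serially diluted in DMSO were added for a further 18 h, then cells were lysed and luminescence read.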

Counter-ions that a name gives are not always drawn.

As usually defined, the EC50 is the concentration giving half of the maximal effect. The low end stands for an effect from little substance, the high end for a need for much substance. The molecule `COc1ccc([C@H]2CC[C@H](CN(c3cccc(-c4coc(C5CC5)n4)c3)C(=O)[C@H]3CC[C@H](C(=O)O)CC3)CC2)cc1C#N` [Compound 18, trans-4-(((trans-4-(3-Cyano-4-methoxyphenyl)cyclohexyl)methyl)(3-(2-cyclopropyloxazol-4-yl)phenyl)carbamoyl)cyclohexanecarboxylic acid] yielded an EC50 of no more than 0.25 µM.

The molecule `COc1ccc(C23CCC(CN(c4cc(-c5cnn(C6CC6)c5)ccn4)C(=O)[C@H]4CC[C@H](C(=O)O)CC4)(CC2)CC3)cc1C` [Compound 17.19, trans-4-((4-(1-Cyclopropyl-1H-pyrazol-4-yl)pyridin-2-yl)((4-(4-methoxy-3-methylphenyl)bicyclo[2.2.2]octan-1-yl)methyl)carbamoyl) cyclohexanecarboxylic acid] returned a 50% effective concentration (EC50) of no more than 0.25 µM.

For the molecule `COc1ccc([C@H]2CC[C@H](CN(c3cc(-c4coc(C5CC5)n4)ccn3)C(=O)[C@H]3CC[C@H](CN)CC3)CC2)nc1C` [Compound 26.22, trans-4-(Aminomethyl)-N-(4-(2-cyclopropyloxazol-4-yl)pyridin-2-yl)-N-((trans-4-(5-methoxy-6-methylpyridin-2-yl)cyclohexyl)methyl) cyclohexanecarboxamide], the 50% effective concentration (EC50) is no less than 1 µM. For `CCOC(=O)C[C@H]1CC[C@H](C(=O)N(C[C@H]2CC[C@H](c3ccc(OC)c(C)n3)CC2)c2cc(-c3cnn(C(C)C)c3)ccn2)CC1` [Compound 18.20, Ethyl 2-(trans-4-((4-(1-isopropyl-1H-pyrazol-4-yl)pyridin-2-yl)((trans-4-(5-methoxy-6-methylpyridin-2-yl)cyclohexyl)methyl)carbamoyl)cyclohexyl)acetate] the value was no more than 0.25 µM; for `COc1ccc([C@H]2CC[C@H](CN(c3cc(-c4cnc(C5CC5)s4)ccn3)C(=O)[C@H]3CC[C@H](OC(=O)N4CC(O)C4)CC3)CC2)cc1C#N` [Compound 7.08, trans-4-(((trans-4-(3-Cyano-4-methoxyphenyl)cyclohexyl)methyl)(4-(2-cyclopropylthiazol-5-yl)pyridin-2-yl)carbamoyl)cyclohexyl 3-hydroxyazetidine-1-carboxylate], no more than 0.25 µM; for `COc1ccc([C@H]2CC[C@H](CN(c3cccc(-c4cnn(C5CC5)c4)c3)C(=O)[C@H]3CC[C@H](OC(=O)NCCO)CC3)CC2)cc1C#N` [Compound 6.19, trans-4-(((trans-4-(3-Cyano-4-methoxyphenyl)cyclohexyl)methyl)(3-(1-cyclopropyl-1H-pyrazol-4-yl)phenyl)carbamoyl)cyclohexyl (2-hydroxyethyl)carbamate], no more than 0.25 µM. For `COc1ccc([C@H]2CC[C@H](CN(c3cc(-c4cnn(C5CC5)c4)ccn3)C(=O)[C@H]3CC[C@H](OC(=O)N4CC(O)C4)CC3)CC2)nc1C` [Compound 7.24, trans-4-((4-(1-Cyclopropyl-1H-pyrazol-4-yl)pyridin-2-yl)((trans-4-(5-methoxy-6-methylpyridin-2-yl)cyclohexyl)methyl)carbamoyl)cyclohexyl 3-hydroxyazetidine-1-carboxylate] the value was no more than 0.25 µM. On to `COc1ccc([C@H]2CC[C@H](CN(c3cc(-c4coc(C5CC5)n4)ccn3)C(=O)[C@H]3CC[C@H](CO)CC3)CC2)nc1C` [Compound 15.04, trans-N-(4-(2-Cyclopropyloxazol-4-yl)pyridin-2-yl)-4-(hydroxymethyl)-N-((trans-4-(5-methoxy-6-methylpyridin-2-yl)cyclohexyl)methyl) cyclohexanecarboxamide], for which the EC50 is no more than 0.25 µM. As for `COc1ccc([C@H]2CC[C@H](CN(c3cccc(-c4cnc(C5CC5)s4)c3)C(=O)[C@H]3CC[C@H](NC(=O)CNS(C)(=O)=O)CC3)CC2)cc1C` [Compound 30.06, trans-N-(3-(2-Cyclopropylthiazol-5-yl)phenyl)-N-((trans-4-(4-methoxy-3-methylphenyl)cyclohexyl)methyl)-4-(2-(methylsulfonamido)acetamido) cyclohexanecarboxamide], the half-maximal effective concentration (EC50) is no more than 0.25 µM.

Take `COc1ccc([C@H]2CC[C@H](CN(c3cc(-c4coc(C(C)C)n4)ccn3)C(=O)[C@H]3CC[C@H](OC(=O)N4CC(N(C)C)C4)CC3)CC2)nc1C` [Compound 7.84, trans-4-((4-(2-Isopropyloxazol-4-yl)pyridine-2-yl)((trans-4-(5-methoxy-6-methylpyridin-2-yl)cyclohexyl)methyl)carbamoyl)cyclohexyl 3-(dimethylamino)azetidine-1-carboxylate]: the EC50 was no more than 0.25 µM.

In turn, `COc1ccc([C@H]2CC[C@H](CN(c3cccc(-c4cnn(C5CC5)c4)c3)C(=O)[C@H]3CC[C@H](OC(=O)NC4CN(C)C4)CC3)CC2)cc1C` [Compound 6.18, trans-4-((3-(1-Cyclopropyl-1H-pyrazol-4-yl)phenyl)((trans-4-(4-methoxy-3-methylphenyl)cyclohexyl)methyl)carbamoyl)cyclohexyl (1-methylazetidin-3-yl)carbamate] came in with a concentration giving a half-maximal response (EC50) of no more than 0.25 µM. For `CNCCO[C@H]1CC[C@H](C(=O)N(C[C@H]2CC[C@H](c3ccc(OC)c(C)c3)CC2)c2cccc(-c3cnc(C4CC4)s3)c2)CC1` [Compound 11, trans-N-(3-(2-Cyclopropylthiazol-5-yl)phenyl)-N-((trans-4-(4-methoxy-3-methylphenyl)cyclohexyl)methyl)-4-(2-(methylamino)ethoxy) cyclohexanecarboxamide hydrochloride] the value was 0.25 to 1 µM; for `COc1ccc([C@H]2CC[C@H](CN(c3cccc(-c4cnn(C(C)C)c4)c3)C(=O)[C@H]3CC[C@H](OC(=O)NCCCO)CC3)CC2)cc1C` [Compound 6.14, trans-4-((3-(1-Isopropyl-1H-pyrazol-4-yl)phenyl)((trans-4-(4-methoxy-3-methylphenyl)cyclohexyl)methyl)carbamoyl)cyclohexyl (3-hydroxypropyl)carbamate], no more than 0.25 µM; for `COc1ccc([C@H]2CC[C@H](CN(c3cccc(-c4cnn(C5CC5)c4)c3)C(=O)[C@H]3CC[C@H](NC(=O)CNC(C)=O)CC3)CC2)cc1C` [Compound 31.01, trans-4-(2-Acetamidoacetamido)-N-(3-(1-cyclopropyl-1H-pyrazol-4-yl)phenyl)-N-((trans-4-(4-methoxy-3-methylphenyl)cyclohexyl)methyl)cyclohexanecarboxamide], no less than 1 µM.

With `COc1ccc([C@H]2CC[C@H](CN(c3cccc(-c4cnn(C5CC5)c4)c3)C(=O)[C@H]3CC[C@H](OC(=O)N4CC(CS(C)(=O)=O)C4)CC3)CC2)cc1C` [Compound 9, trans-4-((3-(1-cyclopropyl-1H-pyrazol-4-yl)phenyl)((trans-4-(4-methoxy-3-methylphenyl)cyclohexyl)methyl)carbamoyl)cyclohexyl 3-((methylsulfonyl)methyl)azetidine-1-carboxylate], the concentration for a half-maximal effect (EC50) was no more than 0.25 µM. For `CN(C)c1ccc([C@H]2CC[C@H](CN(c3cccc(-c4cnc(C5CC5)s4)c3)C(=O)[C@H]3CC[C@H](C(=O)O)CC3)CC2)cn1` [Compound 16, trans-4-((3-(2-Cyclopropylthiazol-5-yl)phenyl)((trans-4-(6-(dimethylamino)pyridin-3-yl)cyclohexyl)methyl)carbamoyl)cyclohexanecarboxylic acid] the value was no more than 0.25 µM; for `COc1ccc([C@H]2CC[C@H](CN(c3cc(-c4coc(C5CC5)n4)ccn3)C(=O)[C@H]3CC[C@H](OC(=O)N4CC(OC(C)C)C4)CC3)CC2)nc1C` [Compound 7.91, trans-4-((4-(2-Cyclopropyloxazol-4-yl)pyridine-2-yl)((trans-4-(5-methoxy-6-methylpyridin-2-yl)cyclohexyl)methyl)carbamoyl)cyclohexyl 3-isopropoxyazetidine-1-carboxylate], no more than 0.25 µM; for `CNC(=O)OCC(=O)N[C@H]1CC[C@H](C(=O)N(C[C@H]2CC[C@H](c3ccc(OC)c(C)c3)CC2)c2cccc(-c3cnn(C4CC4)c3)c2)CC1` [Compound 26.04, 2-((trans-4-((3-(1-Cyclopropyl-1H-pyrazol-4-yl)phenyl)((trans-4-(4-methoxy-3-methylphenyl)cyclohexyl)methyl)carbamoyl)cyclohexyl)amino)-2-oxoethyl methylcarbamate], no more than 0.25 µM.

`CCc1nc(-c2ccnc(N(C[C@H]3CC[C@H](c4ccc(OC)c(C)n4)CC3)C(=O)[C@H]3CC[C@H](OC(=O)NC)CC3)c2)co1` [Compound 5.51, trans-4-((4-(2-Ethyloxazol-4-yl)pyridin-2-yl)((trans-4-(5-methoxy-6-methylpyridin-2-yl)cyclohexyl)methyl)carbamoyl)cyclohexyl methylcarbamate]: the EC50 was no more than 0.25 µM.
